How the values were obtained:
Format in all cases: biochemical
[1] = molecular target: T1, myosin+removed RLC (Sus scrofa, UniProt P79293); assay: NADH-coupled actin-activated ATPase assay, myosin + removed RLC; conditions: 2 μM myosin, rabbit skeletal actin, 25° C., 1% DMSO
T1 construct: Full-length myosin was resuspended to 1 mg/mL
Experimental: (§1) Full-length myosin was resuspended to 1 mg/mL in a buffer containing 500 mM KCl, 10 mM KPi, 15 mM CDTA, pH 8.5. Triton-X was then added to a final concentration of […], and the suspension was agitated for 15 minutes at room temperature to selectively remove the regulatory light chain (RLC). RLC-removed myosin was then precipitated and collected and resuspended in a buffer containing 400 mM KCl, 50 mM Mops, pH 7, 2 mM MgCl2, and 1 mM DTT. Recombinantly expressed and purified human ventricle RLC was added in a 3-fold molar excess to myosin and incubated on ice for 2 hours to allow for reassociation of the RLC onto myosin. Triton (0.1%) was added to the reaction to prevent any non-specific binding events. RLC-exchanged myosin was then precipitated and collected and resuspended in a buffer containing 12 mM PIPES, pH 6.8, […], 2 mM MgCl2, and 1 mM DTT. RLC removal and exchange were confirmed by SDS-PAGE and proteins were visualized using coomassie stain.
(§2) Myosin was resuspended in buffer A (f.c.=12 mM PIPES, pH 6.8, 30 mM KCl, 2 mM MgCl2, 1 mM DTT, 0.1 mg/mL BSA, 0.01% (v/v) Antifoam 204, and 0.6% (v/v) PK/LDH (final reaction contains ≥3.6 U/mL PK and >5.4 U/mL LDH)) at final concentrations of 1 μM for myosin+native RLC and 2 μM for myosin+removed RLC and myosin+human ventricle RLC. Buffer A was then mixed with an equal volume of buffer B (f.c.=12 mM PIPES, pH 6.8, 30 mM KCl, 2 mM MgCl2, 1 mM DTT, 0.1 mg/mL BSA, 0.01% (v/v) Antifoam 204, 0.5 mM NADH, 1.5 mM phosphoenolpyruvate, 1 mM ATP, and 0.3 mg/mL filamentous rabbit skeletal actin) in a 384-well plate. Dose-dependent compound effects were assessed by adding the compounds at varying concentrations between 100 μM and 2 nM, all with a constant final DMSO concentration of 1% v/v. The reactions were run at a constant temperature of 25° C. in the plate reader to monitor the change in A340 over time. Measurements were taken every 90 sec for 75 min to generate raw time-domain absorbance data, which was processed to normalized reaction rates. Normalized enzymatic rates were calculated, using rates observed in 1% (v/v) in DMSO as 100% and 0 slope as 0%. Compound-specific activity curves were generated by plotting the normalized rates versus compound concentration and fitting the data to a 4-parameter logistic model. In addition to the fit parameters, the IC25% was calculated, relative to the 100% normalized value.

[2] = tested on: Rabbit Skeletal myofibrils (rabbit psoas muscle); assay: Myofibril ATPase assay (PK/LDH NADH-coupled), skeletal myofibrils
Summary of the method: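 Rabbit psoas myofibrils in pCa (PIPES/CaCl2/EGTA, pH 7.0) buffer; ADP coupled via PK/LDH to NADH loss, read at 340 nm every 1.5–2 min for 75 min. Slopes normalized to vehicle (100%) and fit to 4-parameter logistic for EC25, plus EC50 for inhibitors.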

[3] = molecular target: T2, Porcine Ventricle myofibrils (left ventricle of Yucatan minipigs) (Sus scrofa, UniProt P79293); assay: Myofibril ATPase assay (PK/LDH NADH-coupled), ventricle myofibrils
T2 construct: Myofibrils from porcine cardiac muscle was isolated from the left ventricle of Yucatan minipigs; tissue Exemplar Genetics; host or cells: left ventricle of Yucatan minipigs
Summary of the method: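 Yucatan minipig left-ventricle myofibrils; ATPase measured by PK/LDH-coupled NADH loss at 340 nm, read every 1.5-2 min for 75 min. Slopes normalized to vehicle (100%) and fit to 4-parameter logistic model; EC25 and, for inhibitors, EC50 calculated.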

[4] = tested on: Porcine Atria myofibrils; assay: Myofibril ATPase assay (PK/LDH NADH-coupled), atria myofibrils
Summary of the method: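 Porcine atrial myofibril ATPase followed via PK/LDH-coupled NADH depletion, absorbance at 340 nm read every 1.5-2 min over 75 min. Slopes (mAU/min) normalized to vehicle as 100% and fit to a 4-parameter logistic; EC25% derived, plus EC50% for inhibitors.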

[5] = molecular target: T3, myosin+native RLC (Sus scrofa, UniProt P79293); assay: NADH-coupled actin-activated ATPase assay, myosin + native RLC; conditions: 1 μM myosin, rabbit skeletal actin, 25° C., 1% DMSO
T3 construct: Full-length myosin was resuspended to 1 mg/mL
Experimental: as §1, §2

[6] = molecular target: T4, myosin+human ventricle RLC (Sus scrofa, UniProt P79293); assay: NADH-coupled actin-activated ATPase assay, myosin + human ventricle RLC; conditions: 2 μM myosin, rabbit skeletal actin, 25° C., 1% DMSO
T4 construct: Full-length myosin was resuspended to 1 mg/mL
Experimental: as §1, §2

T3 sequence (P79293 whole entry): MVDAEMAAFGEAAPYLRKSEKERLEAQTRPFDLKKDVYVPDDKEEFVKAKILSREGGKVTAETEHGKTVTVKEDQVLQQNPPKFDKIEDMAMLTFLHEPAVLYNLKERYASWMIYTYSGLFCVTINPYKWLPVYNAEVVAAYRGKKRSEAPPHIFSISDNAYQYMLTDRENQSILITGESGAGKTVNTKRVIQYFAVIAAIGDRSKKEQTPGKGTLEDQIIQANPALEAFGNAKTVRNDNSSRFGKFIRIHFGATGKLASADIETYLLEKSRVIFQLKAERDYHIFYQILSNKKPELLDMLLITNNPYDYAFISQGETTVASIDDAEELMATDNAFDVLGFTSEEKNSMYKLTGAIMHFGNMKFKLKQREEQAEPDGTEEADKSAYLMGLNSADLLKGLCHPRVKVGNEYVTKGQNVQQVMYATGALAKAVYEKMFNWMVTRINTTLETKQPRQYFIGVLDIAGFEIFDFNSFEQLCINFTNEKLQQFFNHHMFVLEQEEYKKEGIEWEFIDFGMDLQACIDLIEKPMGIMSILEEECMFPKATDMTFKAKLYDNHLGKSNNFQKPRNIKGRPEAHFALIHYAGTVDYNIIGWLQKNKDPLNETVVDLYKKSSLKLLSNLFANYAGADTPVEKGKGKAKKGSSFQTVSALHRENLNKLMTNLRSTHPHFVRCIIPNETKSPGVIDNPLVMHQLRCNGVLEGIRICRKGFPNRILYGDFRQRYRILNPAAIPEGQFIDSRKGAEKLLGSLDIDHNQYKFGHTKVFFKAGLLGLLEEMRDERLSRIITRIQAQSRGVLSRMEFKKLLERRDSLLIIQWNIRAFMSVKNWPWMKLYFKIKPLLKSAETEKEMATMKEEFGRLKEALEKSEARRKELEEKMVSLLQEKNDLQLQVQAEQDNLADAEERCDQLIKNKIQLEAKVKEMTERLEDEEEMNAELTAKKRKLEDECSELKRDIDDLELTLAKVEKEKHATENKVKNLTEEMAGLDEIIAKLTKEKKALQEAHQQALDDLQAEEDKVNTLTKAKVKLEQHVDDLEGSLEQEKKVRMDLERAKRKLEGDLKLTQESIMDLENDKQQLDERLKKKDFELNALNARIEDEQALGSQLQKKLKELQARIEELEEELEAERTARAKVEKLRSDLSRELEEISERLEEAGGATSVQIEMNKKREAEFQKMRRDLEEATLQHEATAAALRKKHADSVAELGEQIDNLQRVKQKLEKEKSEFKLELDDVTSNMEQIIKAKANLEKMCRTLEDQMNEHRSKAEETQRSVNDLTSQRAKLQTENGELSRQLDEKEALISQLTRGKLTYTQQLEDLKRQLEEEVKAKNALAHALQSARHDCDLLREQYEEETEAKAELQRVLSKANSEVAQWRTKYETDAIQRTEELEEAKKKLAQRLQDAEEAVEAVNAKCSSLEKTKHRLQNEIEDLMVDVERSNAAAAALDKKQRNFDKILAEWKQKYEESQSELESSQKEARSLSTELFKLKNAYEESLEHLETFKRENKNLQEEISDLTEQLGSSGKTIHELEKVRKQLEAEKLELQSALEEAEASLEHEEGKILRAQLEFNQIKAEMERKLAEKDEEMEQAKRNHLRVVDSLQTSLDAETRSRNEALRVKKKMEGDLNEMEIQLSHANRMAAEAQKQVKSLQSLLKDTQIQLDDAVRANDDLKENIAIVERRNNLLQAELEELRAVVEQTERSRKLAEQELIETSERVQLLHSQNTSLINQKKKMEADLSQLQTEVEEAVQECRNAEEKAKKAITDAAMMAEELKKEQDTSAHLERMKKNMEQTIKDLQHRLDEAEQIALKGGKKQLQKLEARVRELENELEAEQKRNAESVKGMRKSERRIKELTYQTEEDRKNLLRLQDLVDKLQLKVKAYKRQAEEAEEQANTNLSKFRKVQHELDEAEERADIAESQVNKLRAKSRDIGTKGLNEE
T2 sequence (P79293 whole entry): as above
T1 sequence (P79293 whole entry): as above
T4 sequence (P79293 whole entry): as above

Potency, Full-length myosin + RLC removed [1]	Rabbit Psoas IC25 ([2]; Table 8)	Porcine Ventricle IC25 ([3]; Table 8)	Porcine Atria IC25 ([4]; Table 8)	Potency, Full-length myosin + native porcine ventricle RLC [5]	Potency, Full-length myosin + exchanged human ventricle RLC [6]	Rabbit Psoas IC25 ([2]; Table 7)	Porcine Ventricle IC25 ([3]; Table 7)	Porcine Atria IC25 ([4]; Table 7)	Compound
>100000 nM	2013 nM	20930 nM	2940 nM	12320 nM	14390 nM	–	–	–	C[C@H](NC(=O)CN1Cc2cc(F)ccc2NC1=O)c1ccc(C#N)cn1 [Compound B172]
>100000 nM	60 nM	150 nM	60 nM	590 nM	490 nM	–	–	–	C[C@H](NC(=O)C1(N2Cc3c(ccc(F)c3F)NC2=O)CC1)c1ncc(C#N)cc1F [Compound B269]
>100000 nM	–	–	–	2170 nM	1920 nM	47.64 nM	1309 nM	150 nM	C[C@H](NC(=O)CN1C(=O)Nc2cccnc2C12CC2)c1ncc(C#N)cc1F [Compound N26]

— patent publication US12509431B2, “1,4-dihydroquinazolinone compounds and uses thereof” (Edgewise Therapeutics, Inc., priority 2022, dated 2025)
